Among the data in ChEMBL document CHEMBL5726342, “NMDA receptor modulators and uses related thereto” (2017) are IC50 values, retold here.

pIC50: −log10 of the molar value.

This test is described as follows: Inhibition Assay: Two-electrode voltage-clamp recordings were made from Xenopus laevis oocytes expressing recombinant rat GluN1/GluN2A, GluN1/GluN2B, GluN1/GluN2C, GluN1/GluN2D, GluA1, or GluK2 receptors following injection of 5-10 ng of cRNA synthesized according to manufacturers' protocols (Ambin, mMessage, mMachine). cDNAs used were rat GluN1-1a (GenBank accession numbers U11418 and U08261; hereafter GluN1), GluN2A (D13211), GluN2B (U11419), GluN2C (M91563), GluN2D (L31611), GluA1 (X17184), GluK2 (Z11548). The current under voltage-clamp was recorded during perfusion with recording solution containing (in mM) 90 NaCl, 1.0 KCl, 0.5 BaCl2, 0.005 EDTA, and 10 HEPES at pH 7.4 (23° C.). Glass micropipettes had resistances of 0.3-1.0 MS2 and were filled with 3.0 M KCl. The membrane potential was clamped at −40 mV during the experiment. Recordings were digitized at 10 Hz and analyzed off line. 20 mM stock solutions of test compounds in 100% DMSO were made and diluted to obtain the final concentration; final DMSO content was 0.05-0.5% (vol/vol). Oocytes expressing GluK2 homomeric receptors were first treated with 10 μM concanavalin A (10 minutes). NMDA receptor responses were obtained by challenging oocytes with 100 μM glutamate plus 30 μM glycine; GluA1 and GluK2 receptors responses were recorded during application of 100 μM glutamate. […]. The format is cell-based. Background: Two-electrode voltage clamp holds a large cell at a set potential and records current.

For orientation: pIC50 means −log10 of the IC50, conventionally taken in molar units.

On to `CCc1ccc(C2C(C(=O)c3ccncc3)=C(O)C(=O)N2CCc2c[nH]c3cc(C)ccc23)cc1` (configuration not stated), for which the pIC50 was 5.05.
Regarding `CCc1ccc(C2C(C(=O)c3cccnc3)=C(O)C(=O)N2CCc2c[nH]c3cc(C)ccc23)cc1` (configuration not stated), the pIC50 was 5.15.
